Calls of active or inactive are those of the source. Rule as the data show it, for most assays here: actives have a measured Kd and inactives only a lower limit.
Assays:
[1] = biological target: Tyrosine-protein kinase Lyn (Homo sapiens, UniProt P07948)
[2] = biological target: T1, Mitogen-activated protein kinase kinase kinase kinase 2 (Homo sapiens, UniProt Q12851)
T1 sequence (Q12851 whole entry): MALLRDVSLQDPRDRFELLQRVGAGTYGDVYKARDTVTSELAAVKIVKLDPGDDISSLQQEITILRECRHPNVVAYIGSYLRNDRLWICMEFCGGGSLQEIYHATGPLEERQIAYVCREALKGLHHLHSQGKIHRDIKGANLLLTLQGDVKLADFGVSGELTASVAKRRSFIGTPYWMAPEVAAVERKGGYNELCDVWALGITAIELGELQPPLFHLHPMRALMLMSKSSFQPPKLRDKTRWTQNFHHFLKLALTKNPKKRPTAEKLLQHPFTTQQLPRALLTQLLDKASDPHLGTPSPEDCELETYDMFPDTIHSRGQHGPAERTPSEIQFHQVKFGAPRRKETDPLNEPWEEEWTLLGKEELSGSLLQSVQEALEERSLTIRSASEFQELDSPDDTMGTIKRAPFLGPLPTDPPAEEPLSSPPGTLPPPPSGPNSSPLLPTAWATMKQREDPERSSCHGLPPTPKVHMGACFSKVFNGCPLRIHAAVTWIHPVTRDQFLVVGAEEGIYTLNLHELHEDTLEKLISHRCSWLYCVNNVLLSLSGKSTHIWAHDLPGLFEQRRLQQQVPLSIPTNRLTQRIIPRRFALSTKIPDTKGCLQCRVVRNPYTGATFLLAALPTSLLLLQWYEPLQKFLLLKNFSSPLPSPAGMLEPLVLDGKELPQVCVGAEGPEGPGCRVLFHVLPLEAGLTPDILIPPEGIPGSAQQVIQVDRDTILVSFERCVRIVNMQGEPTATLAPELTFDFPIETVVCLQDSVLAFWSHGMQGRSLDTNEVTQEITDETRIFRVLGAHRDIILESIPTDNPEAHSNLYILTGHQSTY

[3] = biological target: Tyrosine-protein kinase Fyn (Homo sapiens, UniProt P06241)
Tyrosine-protein kinase Fyn, sequence (P06241 whole entry): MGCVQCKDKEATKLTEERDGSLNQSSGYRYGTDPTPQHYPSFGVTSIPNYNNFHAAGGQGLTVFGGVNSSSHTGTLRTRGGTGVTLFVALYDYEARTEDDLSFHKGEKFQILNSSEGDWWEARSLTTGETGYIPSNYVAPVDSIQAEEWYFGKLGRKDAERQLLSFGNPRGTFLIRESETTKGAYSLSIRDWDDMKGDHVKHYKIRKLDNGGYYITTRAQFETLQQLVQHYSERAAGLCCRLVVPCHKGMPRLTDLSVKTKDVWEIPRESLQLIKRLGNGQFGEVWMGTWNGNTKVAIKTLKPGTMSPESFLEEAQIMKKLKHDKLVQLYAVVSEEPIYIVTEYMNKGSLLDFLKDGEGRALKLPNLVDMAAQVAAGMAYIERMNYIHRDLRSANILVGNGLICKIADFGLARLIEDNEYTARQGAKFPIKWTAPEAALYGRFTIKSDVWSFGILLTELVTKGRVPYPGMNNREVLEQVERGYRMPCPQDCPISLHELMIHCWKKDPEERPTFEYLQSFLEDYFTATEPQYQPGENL

[4] = biological target: Serine/threonine-protein kinase N1 (Homo sapiens, UniProt Q16512)
[5] = biological target: Serine/threonine-protein kinase 10 (Homo sapiens, UniProt O94804)
Serine/threonine-protein kinase 10, sequence (O94804 whole entry): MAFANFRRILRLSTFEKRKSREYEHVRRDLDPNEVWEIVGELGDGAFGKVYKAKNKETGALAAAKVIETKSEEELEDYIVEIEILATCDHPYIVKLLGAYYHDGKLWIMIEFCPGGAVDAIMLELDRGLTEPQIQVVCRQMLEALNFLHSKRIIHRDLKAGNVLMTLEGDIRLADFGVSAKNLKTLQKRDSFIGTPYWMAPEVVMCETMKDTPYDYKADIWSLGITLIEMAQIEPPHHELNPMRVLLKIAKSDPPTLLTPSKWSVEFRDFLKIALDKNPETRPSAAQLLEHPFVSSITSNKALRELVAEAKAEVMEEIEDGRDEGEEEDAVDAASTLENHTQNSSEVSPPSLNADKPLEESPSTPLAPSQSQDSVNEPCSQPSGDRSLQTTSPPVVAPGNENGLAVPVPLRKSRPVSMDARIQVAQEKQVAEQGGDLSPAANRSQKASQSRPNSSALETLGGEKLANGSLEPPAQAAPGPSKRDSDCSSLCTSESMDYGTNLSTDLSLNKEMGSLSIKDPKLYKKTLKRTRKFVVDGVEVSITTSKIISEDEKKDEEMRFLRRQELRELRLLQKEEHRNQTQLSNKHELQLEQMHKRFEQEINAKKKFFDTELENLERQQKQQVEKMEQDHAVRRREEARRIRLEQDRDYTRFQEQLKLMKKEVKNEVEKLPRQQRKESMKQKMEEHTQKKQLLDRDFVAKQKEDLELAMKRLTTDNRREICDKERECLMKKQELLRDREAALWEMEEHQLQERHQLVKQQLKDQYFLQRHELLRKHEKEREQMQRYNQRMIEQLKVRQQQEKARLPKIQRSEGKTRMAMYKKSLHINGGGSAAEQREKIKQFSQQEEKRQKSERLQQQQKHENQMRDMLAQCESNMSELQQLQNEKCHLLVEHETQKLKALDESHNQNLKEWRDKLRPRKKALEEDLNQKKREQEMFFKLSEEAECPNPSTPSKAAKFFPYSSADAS

[6] = biological target: T2, Cyclin-G-associated kinase (Homo sapiens, UniProt O14976)
T2 sequence (O14976 whole entry): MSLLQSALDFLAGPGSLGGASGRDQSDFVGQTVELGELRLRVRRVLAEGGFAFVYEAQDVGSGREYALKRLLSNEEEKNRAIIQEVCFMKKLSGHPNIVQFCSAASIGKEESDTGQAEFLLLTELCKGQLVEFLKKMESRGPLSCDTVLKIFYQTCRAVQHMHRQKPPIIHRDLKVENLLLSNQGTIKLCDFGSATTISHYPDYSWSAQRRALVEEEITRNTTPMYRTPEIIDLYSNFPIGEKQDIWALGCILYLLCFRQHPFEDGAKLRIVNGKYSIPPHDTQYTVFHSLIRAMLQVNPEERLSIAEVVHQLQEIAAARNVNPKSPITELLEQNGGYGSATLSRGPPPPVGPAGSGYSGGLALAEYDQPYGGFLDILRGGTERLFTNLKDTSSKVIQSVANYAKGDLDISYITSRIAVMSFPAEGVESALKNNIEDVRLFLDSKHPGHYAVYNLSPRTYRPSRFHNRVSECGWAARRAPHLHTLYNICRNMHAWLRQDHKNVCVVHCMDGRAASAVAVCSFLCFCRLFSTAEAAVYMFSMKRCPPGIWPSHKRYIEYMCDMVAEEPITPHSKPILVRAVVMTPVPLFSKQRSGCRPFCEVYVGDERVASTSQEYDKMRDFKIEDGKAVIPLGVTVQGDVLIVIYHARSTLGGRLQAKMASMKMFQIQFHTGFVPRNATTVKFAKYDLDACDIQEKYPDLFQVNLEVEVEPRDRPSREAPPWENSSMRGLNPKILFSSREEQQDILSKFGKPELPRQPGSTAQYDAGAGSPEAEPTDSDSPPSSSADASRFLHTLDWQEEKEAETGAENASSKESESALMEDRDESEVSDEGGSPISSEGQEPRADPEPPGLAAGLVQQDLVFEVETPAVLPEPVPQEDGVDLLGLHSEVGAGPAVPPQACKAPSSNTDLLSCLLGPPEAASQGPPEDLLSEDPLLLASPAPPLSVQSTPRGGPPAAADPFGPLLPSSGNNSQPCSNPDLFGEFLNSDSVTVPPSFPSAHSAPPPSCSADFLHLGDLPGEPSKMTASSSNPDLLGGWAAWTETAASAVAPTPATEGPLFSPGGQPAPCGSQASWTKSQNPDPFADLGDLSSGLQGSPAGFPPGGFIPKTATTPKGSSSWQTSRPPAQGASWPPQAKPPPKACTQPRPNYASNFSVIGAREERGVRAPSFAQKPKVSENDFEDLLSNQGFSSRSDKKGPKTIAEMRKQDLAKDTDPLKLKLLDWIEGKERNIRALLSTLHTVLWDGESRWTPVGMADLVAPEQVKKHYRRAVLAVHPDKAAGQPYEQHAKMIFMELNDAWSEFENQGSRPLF

[7] = biological target: T3, Serine/threonine-protein kinase STK11 (Homo sapiens, UniProt Q15831)
T3 sequence (Q15831 whole entry): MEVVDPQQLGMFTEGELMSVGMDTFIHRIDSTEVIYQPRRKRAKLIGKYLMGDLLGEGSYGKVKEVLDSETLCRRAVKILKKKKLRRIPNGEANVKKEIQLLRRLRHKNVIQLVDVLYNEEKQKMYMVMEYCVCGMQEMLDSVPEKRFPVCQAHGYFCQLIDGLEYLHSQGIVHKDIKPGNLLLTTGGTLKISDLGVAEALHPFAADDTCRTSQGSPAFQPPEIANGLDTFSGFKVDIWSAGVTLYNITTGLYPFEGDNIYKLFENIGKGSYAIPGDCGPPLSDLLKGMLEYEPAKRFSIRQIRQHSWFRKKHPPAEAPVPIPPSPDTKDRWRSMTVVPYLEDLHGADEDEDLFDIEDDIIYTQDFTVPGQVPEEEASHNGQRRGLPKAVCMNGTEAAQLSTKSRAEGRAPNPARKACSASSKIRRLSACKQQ

[8] = biological target: Receptor-interacting serine/threonine-protein kinase 3 (Homo sapiens, UniProt Q9Y572)
Receptor-interacting serine/threonine-protein kinase 3, sequence (Q9Y572 whole entry, canonical isoform): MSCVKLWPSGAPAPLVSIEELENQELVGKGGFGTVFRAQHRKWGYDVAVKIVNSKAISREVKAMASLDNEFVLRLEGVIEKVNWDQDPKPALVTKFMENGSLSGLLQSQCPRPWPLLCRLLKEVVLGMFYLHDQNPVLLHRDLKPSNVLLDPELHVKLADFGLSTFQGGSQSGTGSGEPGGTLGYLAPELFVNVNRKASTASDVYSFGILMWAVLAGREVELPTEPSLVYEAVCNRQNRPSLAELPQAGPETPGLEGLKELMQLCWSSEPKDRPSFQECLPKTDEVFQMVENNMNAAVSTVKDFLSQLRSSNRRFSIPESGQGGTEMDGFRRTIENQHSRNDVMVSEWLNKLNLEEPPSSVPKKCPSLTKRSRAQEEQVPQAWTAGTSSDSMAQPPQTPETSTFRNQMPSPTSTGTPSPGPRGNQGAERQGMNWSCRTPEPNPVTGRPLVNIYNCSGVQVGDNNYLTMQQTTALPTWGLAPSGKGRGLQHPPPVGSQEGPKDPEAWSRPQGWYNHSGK

[9] = biological target: S-adenosylmethionine synthase isoform type-2 (Homo sapiens, UniProt P31153)
S-adenosylmethionine synthase isoform type-2, sequence (P31153 whole entry, canonical isoform): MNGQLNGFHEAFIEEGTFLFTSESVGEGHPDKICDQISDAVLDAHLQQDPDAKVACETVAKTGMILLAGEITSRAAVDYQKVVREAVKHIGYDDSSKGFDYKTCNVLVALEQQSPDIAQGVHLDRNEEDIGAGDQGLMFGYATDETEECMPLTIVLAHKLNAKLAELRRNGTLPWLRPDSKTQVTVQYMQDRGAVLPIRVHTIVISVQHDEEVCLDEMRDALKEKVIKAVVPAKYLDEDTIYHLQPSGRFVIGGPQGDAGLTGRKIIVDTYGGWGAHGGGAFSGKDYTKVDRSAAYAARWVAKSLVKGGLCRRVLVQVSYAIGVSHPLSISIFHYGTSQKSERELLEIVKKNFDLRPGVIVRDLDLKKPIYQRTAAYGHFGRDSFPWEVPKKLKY

[10] = biological target: Ribosomal protein S6 kinase alpha-1 (Homo sapiens, UniProt Q15418)
Ribosomal protein S6 kinase alpha-1, sequence (Q15418 whole entry): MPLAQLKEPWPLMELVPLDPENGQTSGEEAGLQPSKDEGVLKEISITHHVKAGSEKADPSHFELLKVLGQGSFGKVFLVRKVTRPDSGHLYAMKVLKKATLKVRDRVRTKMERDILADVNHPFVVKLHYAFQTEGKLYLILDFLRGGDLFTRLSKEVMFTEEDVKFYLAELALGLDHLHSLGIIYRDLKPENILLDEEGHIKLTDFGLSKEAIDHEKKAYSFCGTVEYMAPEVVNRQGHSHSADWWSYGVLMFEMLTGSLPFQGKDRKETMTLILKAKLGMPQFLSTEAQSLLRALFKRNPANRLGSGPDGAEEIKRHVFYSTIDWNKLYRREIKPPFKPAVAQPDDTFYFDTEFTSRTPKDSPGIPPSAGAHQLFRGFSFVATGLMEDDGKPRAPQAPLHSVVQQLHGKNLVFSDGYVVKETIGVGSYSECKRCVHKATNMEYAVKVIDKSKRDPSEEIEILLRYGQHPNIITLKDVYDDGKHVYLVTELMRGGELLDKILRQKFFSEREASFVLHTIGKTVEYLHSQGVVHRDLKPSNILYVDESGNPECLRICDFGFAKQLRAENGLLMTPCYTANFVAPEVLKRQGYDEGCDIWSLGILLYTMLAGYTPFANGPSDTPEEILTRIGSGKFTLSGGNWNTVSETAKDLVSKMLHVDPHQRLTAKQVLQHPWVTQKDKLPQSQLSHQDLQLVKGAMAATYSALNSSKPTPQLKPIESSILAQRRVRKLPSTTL

TGF-beta receptor type-2 = TGF-beta receptor type-2 (Homo sapiens, UniProt P37173)
TGF-beta receptor type-2, sequence (P37173 whole entry): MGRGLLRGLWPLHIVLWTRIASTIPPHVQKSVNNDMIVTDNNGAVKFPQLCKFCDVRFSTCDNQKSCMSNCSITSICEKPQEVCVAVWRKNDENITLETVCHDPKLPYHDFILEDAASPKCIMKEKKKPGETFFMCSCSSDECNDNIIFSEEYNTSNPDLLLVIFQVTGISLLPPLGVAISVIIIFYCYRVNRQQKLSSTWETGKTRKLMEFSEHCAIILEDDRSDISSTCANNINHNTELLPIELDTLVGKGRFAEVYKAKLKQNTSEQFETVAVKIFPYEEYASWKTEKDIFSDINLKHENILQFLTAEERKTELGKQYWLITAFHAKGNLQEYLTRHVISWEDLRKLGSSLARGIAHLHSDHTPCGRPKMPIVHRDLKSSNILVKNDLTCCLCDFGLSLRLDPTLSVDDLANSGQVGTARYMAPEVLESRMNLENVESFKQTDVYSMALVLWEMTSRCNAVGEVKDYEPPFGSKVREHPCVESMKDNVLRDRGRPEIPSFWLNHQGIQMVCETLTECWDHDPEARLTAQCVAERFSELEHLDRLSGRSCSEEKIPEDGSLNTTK
Also: in the data inactive means no Kd found up to 30 µM.

Tyrosine-protein kinase Lyn, sequence (P07948 whole entry): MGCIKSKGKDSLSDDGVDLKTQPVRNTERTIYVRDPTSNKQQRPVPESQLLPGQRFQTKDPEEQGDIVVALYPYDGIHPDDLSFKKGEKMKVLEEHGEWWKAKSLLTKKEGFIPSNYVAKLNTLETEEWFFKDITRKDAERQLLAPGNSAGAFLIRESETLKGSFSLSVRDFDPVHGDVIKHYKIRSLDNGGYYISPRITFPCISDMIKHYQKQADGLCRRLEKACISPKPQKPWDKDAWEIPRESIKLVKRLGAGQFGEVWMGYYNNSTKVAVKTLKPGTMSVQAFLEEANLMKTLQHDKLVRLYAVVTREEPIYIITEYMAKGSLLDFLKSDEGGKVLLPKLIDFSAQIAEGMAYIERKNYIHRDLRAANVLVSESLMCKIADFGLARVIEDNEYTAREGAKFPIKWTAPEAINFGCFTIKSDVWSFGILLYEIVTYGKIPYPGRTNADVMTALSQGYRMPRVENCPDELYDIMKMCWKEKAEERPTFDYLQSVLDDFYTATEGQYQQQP

Structure (SMILES) | Kd [1] | Kd [2] | Kd [3] | Kd [4] | Kd [5] | Kd [6] | Kd [7] | Kd [8] | Kd [9] | Kd [10] | Kd (TGF-beta receptor type-2)
N[C@@H]1CCCN(c2c(/C=C3\SC(=O)NC3=O)cccc2-c2ccccc2)C1 | > 30 µM (inactive) | > 30 µM (inactive) | > 30 µM (inactive) | > 30 µM (inactive) | > 30 µM (inactive) | > 30 µM (inactive) | > 30 µM (inactive) | > 30 µM (inactive) | > 30 µM (inactive) | > 30 µM (inactive) | 
Cc1ccc(NC(=O)c2ccc(CN3CC[C@H](N(C)C)C3)c(C(F)(F)F)c2)cc1Nc1nccc(-c2cncnc2)n1 [BAFETINIB] | 0.239 µM (active) | > 30 µM (inactive) | 1.44 µM (active) | > 30 µM (inactive) | > 30 µM (inactive) | > 30 µM (inactive) | > 30 µM (inactive) | 0.506 µM (active) |  | > 30 µM (inactive) | > 30 µM (inactive)
CCc1cnn2c(NCc3ccc[n+]([O-])c3)cc(N3CCCC[C@H]3CCO)nc12 [DINACICLIB] | > 30 µM (inactive) |  |  | > 30 µM (inactive) | > 30 µM (inactive) | > 30 µM (inactive) | 0.497 µM (active) | > 30 µM (inactive) | > 30 µM (inactive) | > 30 µM (inactive) | > 30 µM (inactive)
CN1CCN(c2ccc3nc(-c4c(N)c5c(F)cccc5[nH]c4=O)[nH]c3c2)CC1 [DOVITINIB] |  |  |  |  |  |  |  | > 30 µM (inactive) |  |  | 
Cc1cn(-c2cc(NC(=O)c3ccc(C)c(Nc4nccc(-c5cccnc5)n4)c3)cc(C(F)(F)F)c2)cn1 [NILOTINIB] |  |  |  |  |  |  |  | 1.27 µM (active) | > 30 µM (inactive) |  | 
C1=C/COCc2cc(ccc2OCCN2CCCC2)Nc2nccc(n2)-c2cccc(c2)COC/1 [PACRITINIB] | > 30 µM (inactive) | 3.72 µM (active) | > 30 µM (inactive) | > 30 µM (inactive) |  | 0.674 µM (active) | 0.003 µM | > 30 µM (inactive) | > 30 µM (inactive) | > 30 µM (inactive) | > 30 µM (inactive)
OCCn1cc(-c2cnc3nnn(Cc4ccc5ncccc5c4)c3n2)cn1 [PF-04217903] | > 30 µM (inactive) |  |  | > 30 µM (inactive) | > 30 µM (inactive) | > 30 µM (inactive) | > 30 µM (inactive) | > 30 µM (inactive) | > 30 µM (inactive) | > 30 µM (inactive) | > 30 µM (inactive)
C[C@@H](c1ccc2nccn2c1)n1nnc2ncc(-c3cnn(C)c3)nc21 [SAVOLITINIB] | > 30 µM (inactive) | > 30 µM (inactive) | > 30 µM (inactive) | > 30 µM (inactive) | > 30 µM (inactive) | > 30 µM (inactive) |  | > 30 µM (inactive) | > 30 µM (inactive) | > 30 µM (inactive) | > 30 µM (inactive)
O=C(Nc1cccc(Cl)c1)Nc1ncc(CCNc2ncnc3ccsc23)s1 [SNS-314] | > 30 µM (inactive) |  |  | > 30 µM (inactive) | > 30 µM (inactive) | > 30 µM (inactive) | > 30 µM (inactive) | > 30 µM (inactive) | > 30 µM (inactive) | > 30 µM (inactive) | > 30 µM (inactive)
Nc1nc(N)c2nc(-c3cccc(O)c3)c(-c3cccc(O)c3)nc2n1 [TG100-115] |  |  |  |  |  | > 30 µM (inactive) |  | 3.67 µM | > 30 µM (inactive) |  | 
CCCS(=O)(=O)Nc1ccc(F)c(C(=O)c2c[nH]c3ncc(-c4ccc(Cl)cc4)cc23)c1F [VEMURAFENIB] | > 30 µM (inactive) |  | > 30 µM (inactive) | > 30 µM (inactive) | > 30 µM (inactive) | > 30 µM (inactive) | > 30 µM (inactive) | 2.08 µM (active) | > 30 µM (inactive) | > 30 µM (inactive) | 3.4 µM (active)
CCn1c(=O)c(-c2cc[nH]n2)cc2c(C)nc(N)nc21 [VOXTALISIB] | > 30 µM (inactive) | > 30 µM (inactive) | > 30 µM (inactive) | > 30 µM (inactive) | > 30 µM (inactive) | > 30 µM (inactive) |  | > 30 µM (inactive) | > 30 µM (inactive) | > 30 µM (inactive) | 

More lines, now with the values ahead:

Kd [1] | Kd [2] | Kd [3] | Kd [4] | Kd [5] | Kd [6] | Kd [7] | Kd [8] | Kd [9] | Kd [10] | Kd (TGF-beta receptor type-2) | Structure (SMILES)
> 30 µM (inactive) | 0.11 µM (active) | > 30 µM (inactive) | > 30 µM (inactive) | > 30 µM (inactive) | > 30 µM (inactive) | > 30 µM (inactive) | > 30 µM (inactive) |  | > 30 µM (inactive) | > 30 µM (inactive) | COc1cc(CCc2cc(NC(=O)c3ccc(N4C[C@@H](C)N[C@@H](C)C4)cc3)n[nH]2)cc(OC)c1 [AZD-4547]
 |  |  | 13.2 µM (active) |  | 0.196 µM (active) | > 30 µM (inactive) | 4.82 µM (active) | > 30 µM (inactive) | > 30 µM (inactive) | 0.3 µM (active) | Cc1nc(N)sc1-c1ccnc(Nc2ccc(N3CCOCC3)cc2)n1 [CYC-116]
> 30 µM (inactive) |  |  | > 30 µM (inactive) |  | > 30 µM (inactive) |  | > 30 µM (inactive) | > 30 µM (inactive) | > 30 µM (inactive) | 2.35 µM (active) | Cc1cc(Nc2cc(N3CCN(C)CC3)nc(/C=C/c3ccccc3)n2)n[nH]1 [ENMD-2076]
 |  |  |  |  |  |  | > 30 µM (inactive) | > 30 µM (inactive) |  |  | CCn1c(-c2nonc2N)nc2c(C#CC(C)(C)O)ncc(OC[C@H]3CCCNC3)c21 [GSK-690693]
> 30 µM (inactive) | > 30 µM (inactive) | > 30 µM (inactive) | > 30 µM (inactive) | > 30 µM (inactive) | > 30 µM (inactive) | > 30 µM (inactive) | > 30 µM (inactive) |  | > 30 µM (inactive) | > 30 µM (inactive) | Cn1cc(-c2ccc3nnc(C(F)(F)c4ccc5ncccc5c4)n3n2)cn1 [JNJ-38877605]

Source: ChEMBL document CHEMBL3991601, “The target landscape of clinical kinase drugs” (Science, 2017)
